Patent publication US11407819B2, “Compositions and use of a fibrinogen binding motif present in EFB and COA for therapeutics and vaccines against Staphylococcus aureus” (priority 2013, dated 2022)
Entries after “also recorded” stand apart in the source; their conditions may differ.

Legend:
[1] = test system: THP-1 cells; test: THP-1 cell adherence to immobilized Fg; type: cell-based; conditions: for inhibition of THP-1 adherence to immobilized Fg: M1/70 20 μg/ml, rEfb 0.2 μM, rCoa 0.5 μM, peptides 0.5 μM each
Protocol: Cell adherence assay using cell lines—A monocytic cell line THP-1 cell stably expressing αMβ2 was maintained in RPMI1640 supplemented with 10% fetal bovine serum, […] L-glutamine, 100 units/ml penicillin and 100 μg/ml streptomycin. Prior to use, cells were harvested by centrifuge, washed and suspended in RPMI 1640/1% human serum albumin. For cell adherence assays, 48-well plates were coated with 200 μl of Fibrinogen (10 μg/ml) overnight at 4° C. followed by 1 hour at 37° C. before blocking with 1% Polyvinylpyrrolidone (PVP 3600 kDa) for 45 minutes at 37° C. Subsequently, the cells were seeded 2×10^5/well in the presence or absence of Coa or Efb recombinant proteins or peptides and incubated at 37° C. for 25 minutes. Non-adherent cells were removed by washing gently three times with PBS/1% BSA. Adherent cells were quantitated with CyQuant kit according to the manufacturer's manual.

[2] = biological target: T1, rEfb-N binding to Fg (Homo sapiens, UniProt P02671+P02675+P02679); test: Competition ELISA, peptide inhibition of rEfb-N (Efb 30-104) binding to Fg; conditions: increasing concentration of peptides; 2 nM GST fusion protein
T1 construct: full-length human Fibrinogen (diluted in PBS, Enzyme research); purchased Enzyme research; host or cells: Efb probe made in E. coli
T1 sequence (P02671 20-629 limits assumed): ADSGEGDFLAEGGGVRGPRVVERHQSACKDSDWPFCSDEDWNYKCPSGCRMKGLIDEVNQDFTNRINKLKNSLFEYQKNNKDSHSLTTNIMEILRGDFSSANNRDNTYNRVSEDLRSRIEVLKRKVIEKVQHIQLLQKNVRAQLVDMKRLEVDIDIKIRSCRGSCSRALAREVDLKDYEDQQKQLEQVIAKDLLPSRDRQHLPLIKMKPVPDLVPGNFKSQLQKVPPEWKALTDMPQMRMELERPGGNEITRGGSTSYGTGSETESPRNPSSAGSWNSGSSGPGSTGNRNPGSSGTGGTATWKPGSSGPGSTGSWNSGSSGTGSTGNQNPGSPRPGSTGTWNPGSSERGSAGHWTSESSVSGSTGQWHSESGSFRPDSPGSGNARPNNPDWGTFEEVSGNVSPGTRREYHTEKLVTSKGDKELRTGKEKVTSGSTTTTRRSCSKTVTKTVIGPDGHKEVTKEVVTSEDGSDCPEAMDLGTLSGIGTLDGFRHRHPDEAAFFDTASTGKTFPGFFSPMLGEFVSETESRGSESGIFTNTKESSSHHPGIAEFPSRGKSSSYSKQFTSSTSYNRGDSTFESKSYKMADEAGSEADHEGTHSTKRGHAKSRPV
T1 sequence (P02675 31-491): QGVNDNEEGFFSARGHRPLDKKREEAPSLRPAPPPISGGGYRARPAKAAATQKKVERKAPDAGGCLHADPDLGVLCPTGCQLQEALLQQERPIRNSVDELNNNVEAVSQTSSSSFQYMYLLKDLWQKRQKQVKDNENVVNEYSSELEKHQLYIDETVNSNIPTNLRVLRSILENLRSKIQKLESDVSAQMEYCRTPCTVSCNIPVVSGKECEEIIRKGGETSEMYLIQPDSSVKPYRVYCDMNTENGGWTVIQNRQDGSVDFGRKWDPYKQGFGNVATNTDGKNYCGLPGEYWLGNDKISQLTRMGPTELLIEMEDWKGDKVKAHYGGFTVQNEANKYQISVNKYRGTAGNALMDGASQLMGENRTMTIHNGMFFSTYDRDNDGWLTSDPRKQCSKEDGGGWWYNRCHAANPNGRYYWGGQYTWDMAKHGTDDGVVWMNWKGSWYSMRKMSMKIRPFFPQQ
T1 sequence (P02679 27-453): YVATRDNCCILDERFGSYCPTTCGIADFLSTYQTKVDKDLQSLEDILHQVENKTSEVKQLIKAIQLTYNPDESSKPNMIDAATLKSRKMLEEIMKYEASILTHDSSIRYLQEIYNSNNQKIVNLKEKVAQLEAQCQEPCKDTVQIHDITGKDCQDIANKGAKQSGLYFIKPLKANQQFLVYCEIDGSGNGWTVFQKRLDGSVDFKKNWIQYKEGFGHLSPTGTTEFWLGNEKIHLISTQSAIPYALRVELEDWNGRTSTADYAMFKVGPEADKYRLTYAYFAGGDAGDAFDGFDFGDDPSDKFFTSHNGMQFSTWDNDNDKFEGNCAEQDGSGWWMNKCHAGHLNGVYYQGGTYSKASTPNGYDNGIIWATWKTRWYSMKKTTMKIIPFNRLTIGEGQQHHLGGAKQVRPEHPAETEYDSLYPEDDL
Excerpt: Coa-F contains an Efb like fibrinogen binding motif. FIG. 11A is an image of a ClustalW alignment of amino acid sequence from Efb-O (Efb 68-98) and Coa from Newman strain (col-Newman). Sequence similarity was identified at Coa 474-505. Bold letters denote conserved residues and underlined letters represent similar residues. FIGS. 11B and 11C show a comparison of amino acid sequence of Efb-O with Coa 474-505 (FIG. 11B) and Coa 506-532 (FIG. 11C). Large letters in Efb-O indicate the residues important for Fg binding. The red letters show the identical residues and the yellow letters indicate the similar residues. […] Increasing concentration of Coa peptides was incubated with 2 nM GST fusion proteins in Fg-coated microtiter wells. Closed square, sCoa-O; closed circle, sCoa-RI; closed triangle, sEfb-O.
A peptide was synthesized that corresponds to the Coa-O sequence (sCoa-O) and determined its Fg binding activity in a competition ELISA. Microtiter wells were coated with Fg and binding of the recombinant N-terminal segment of Efb (rEfb-N), that harbors the two Fg binding sites, was quantitated in the presence of increasing concentration of different synthetic peptides.
In the case of peptide inhibition assay, various concentration of Efb or Coa peptides were mixed with a fixed concentration of Coa-GST or Efb-GST fusion proteins (5-10 nM) in TBS and the bound GST fusion proteins were detected through incubation with HRP-conjugated rabbit anti-GST polyclonal antibodies (5000× dilution). All proteins were diluted in TBS containing 1% BSA and 0.05% TWEEN® 20 and the ELISA assays were carried out at room temperature.

| Substance | inhibition of THP-1 adherence to immobilized Fg [1] | inhibition of rEfb-N binding to Fg [2] | reversal of inhibition of THP-1 adherence elicited by rEfb or rCoa ([1]; peptide 50 μM preincubated with rEfb (0.2 μM) or rCoa (0.2 μM)) |
| --- | --- | --- | --- |
| sCoa-RI: synthetic peptide, first 27 residues of repeat region, Coa 506-532 (ETNAYNVTTHANGQVSYGARPTYKKPS) | did not inhibit THP-1 adherence | effectively inhibited rEfb-N binding to Fg; also recorded: somewhat more effective inhibitor than sCoa-O |  |
| sEfb-O: synthetic peptide mimicking the high affinity Fg-binding motif in Efb (Efb 68-98) (KYIKFKHDYNILEFNDGTFEYGARPQFN) | did not inhibit THP-1 adherence | potently inhibited rEfb-N binding to the Fg surface; also recorded: effectively inhibited rEfb-N binding to Fg | reverses the inhibitory activities |
